Experimental data taken from patent US10940139B2, “Compounds that interact with the Ras superfamily for the treatment of cancers, inflammatory diseases, rasopathies, and fibrotic disease” (Shy Therapeutics LLC, priority 2017, dated 2021).

Target: KRas G12D/Q61H double mutant (Homo sapiens (Human), UniProt P01116, G12D/Q61H)
Assay: Ras GTP binding domain inhibition assay (labeled GTP)
Conditions: 20 μM compound; KRas G12D/Q61H double mutant; read-out: % Inhibition at 20 μM of K-Ras mutant and wild-type protein, KRas G12D Q61H
Description: Buffer-I: • 50 mM Tris, pH 7.5 • 150 mM NaCl (optional) • 1 mM MgCl2 • 1 mM DTT. • KRas G12D mutant protein was expressed as a His-tagged protein. Purified His-KRas G12D protein was diluted in buffer-I to a final concentration of 3-10 μg/ml. • 200 μl of the diluted His-KRas G12D protein was added to a nickel coated 96 well plate and incubated overnight at 4° C. • The next day, wells were washed 3× in 200 μl of Buffer-I. • Then 200 μl of Buffer-I were added to each well in the presence of 1% DMSO. • Tested compounds were added to the protein-coated wells at a concentration of 20 μM, and incubated for 3 hours at room temperature. While performing IC50 measurements a serial dilution of all tested concentrations was prepared.
Then 22 μl of Cy3-GTP or Cy5-GTP was added to each well. The labeled GTP was incubated for 45 min. at room temperature. • Following GTP incubation, wells were washed 3× in Buffer-I, and 200 μl of Buffer-I were added to each well. • Following washes, the amount of bound labeled-GTP was measured with an Eppendorf AF2200 plate reader.
By substituting KRas G12D mutant protein with KRas G12C mutant, KRas wild type, KRas Q61H mutant, KRas G12D/Q61H double mutant or KRas G12C/Q61H double mutant under the assay conditions described above, KRas G12C mutant KRas wild type, KRas Q61H mutant, KRas G12D/Q61H double mutant and KRas G12C/Q61H double mutant inhibition, respectively, were each determined.

Sequence of KRas G12D/Q61H double mutant (P01116-2 other isoform, or with tags, fused parts or gaps G12D/Q61H): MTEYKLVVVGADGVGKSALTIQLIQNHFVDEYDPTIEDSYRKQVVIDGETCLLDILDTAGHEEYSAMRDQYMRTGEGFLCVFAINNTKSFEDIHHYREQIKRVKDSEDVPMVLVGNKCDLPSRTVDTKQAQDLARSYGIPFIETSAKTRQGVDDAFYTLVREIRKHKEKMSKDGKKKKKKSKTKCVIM

inhibition at 20 µM	SMILES
51 to 75%	CCN(CCNC(=O)c1oc(-c2ccccc2)nc1C)c1ccccc1C
25 to 50%	CCN(CC)S(=O)(=O)c1cccc(C(=O)N2N=C(c3ccccc3)CC2(O)C(F)(F)F)c1 (stereo not drawn)
1 to 25%	O=C(C1CCN(c2ccccc2[N+](=O)[O-])CC1)N1CCCC1C1CCCCC1 (stereo not drawn)
25 to 50%	C=CCn1c(C)cc(C(=O)CSc2nc3ccccc3c(=O)n2C(C)COC)c1C (stereo not drawn)
25 to 50%	C=CCc1cc(OCC)ccc1OCC(=O)NCc1ccc(OC)cc1
51 to 75%	O=C(COC1CCCCC1)Nc1nnc(-c2ccccn2)[nH]1
25 to 50%	COC(=O)c1ccc(COC(=O)c2oc3ccccc3c2COC(C)C)o1
25 to 50%	COc1ccc(-c2nc(CSc3nnc(CC(C)c4ccccc4)o3)cs2)cc1OC (stereo not drawn)
25 to 50%	CC(O)(c1ccc(OCc2csc(Cc3ccccc3)n2)cc1)C(F)(F)F (stereo not drawn)
1 to 25%	COc1ccc(-c2cc(NC(=O)C3CC(=O)N(C(C)c4ccccc4)C3)ccc2OC)cc1 (stereo not drawn)
1 to 25%	O=C(Cc1ccccc1[N+](=O)[O-])N1CCCC1C1CCCC1 (stereo not drawn)
25 to 50%	O=C(COCC(F)(F)F)Nc1nnc(-c2ccccn2)[nH]1

Same assay, conditions: 20 μM compound; read-out: % Inhibition at 20 μM KRas G12D Q61H

inhibition at 20 µM	SMILES
25 to 50%	COc1ccc(Br)cc1CN(C)C(C)c1nnc(-c2ccc(C)cc2)o1 (stereo not drawn)
25 to 50%	CN(Cc1ccc(C(=O)NCC(F)(F)F)cc1)Cc1ccc([N+](=O)[O-])cc1
1 to 25%	COc1ccccc1CN(Cc1cccs1)C(=O)c1ccc(S(=O)(=O)N2CCOCC2)cc1
1 to 25%	CCN(CC)S(=O)(=O)c1ccc(NCCOC)c(C(=O)NCCC(C)C)c1
1 to 25%	COc1ccc(-c2nc(C(=O)NCc3ccccn3)cs2)cc1
25 to 50%	Cc1cccc(C)c1OCCn1c(CN2CCCCC2)nc2ccccc21
1 to 25%	CCN(C(=O)c1ccc(COc2ccccc2F)o1)c1ccccc1C
25 to 50%	O=C(c1cocn1)N1CCCc2c(O)nc(-c3ccccn3)nc21 [drawing 2649]
25 to 50%	COc1ccc(-c2nc(C(=O)NC(C)c3ccccn3)cs2)cc1 (stereo not drawn)
25 to 50%	O=C(Nc1nc(-c2ccccn2)cs1)c1ccc(=O)n(Cc2ccccc2)n1
25 to 50%	COc1ccccc1OCc1ccc(C(=O)N2CCCc3c(F)cc(F)cc32)o1
25 to 50%	O=C(CSCc1ccccn1)Nc1nnc(-c2ccccn2)[nH]1
25 to 50%	Cc1nc(CN(Cc2ccccc2[N+](=O)[O-])C(C)c2ccc(Cl)cc2)oc1C (stereo not drawn)
1 to 25%	O=C(c1cc(-c2ccc(F)cc2)[nH]n1)N(Cc1ccco1)C1CCCC1
25 to 50%	O=C(c1csc2c(O)nc(-c3ccccn3)nc12)N1CCN(c2ccc(Cl)cc2)CC1
1 to 25%	Brc1csc2nc(-c3ccccn3)nc(N3CCOCC3)c12 [drawing 2701]
25 to 50%	CN(CCc1ccncc1)C(=O)c1csc2c(O)nc(-c3ccccn3)nc12 [drawing 2688]
25 to 50%	COc1ccccc1OCc1ccc(C(=O)N2CCc3ccccc32)o1
25 to 50%	Cc1ccc2cccc(OS(=O)(=O)N3CCOCC3)c2n1

Same assay, conditions: 20 μM; read-out: KRas G12D Q61H % Inh.

inhibition at 20 µM	SMILES
51 to 75%	Cc1ccc(CC(=O)Nc2nnc(-c3ccccn3)[nH]2)s1 [drawing 2521]
51 to 75%	CCc1cc(NNC(=O)c2ccc(C#N)cc2)nc(-c2ccccn2)n1 [drawing 2605]
25 to 50%	Cc1nc(-c2ccccn2)nc(O)c1CCC(=O)Nc1cccc(OCC(=O)N2CCCC2)c1 [drawing 2601]
25 to 50%	Oc1ccc(C2(c3cccc(Cl)c3)CCCC2)cc1 [drawing 2620]
51 to 75%	O=S(=O)(Oc1cc(C(F)(F)F)cc(C(F)(F)F)c1)N1CCc2ccccc2C1 [drawing 2627]
51 to 75%	O=C(Nc1nnc(-c2ccccn2)[nH]1)c1ccc(CN2C(=O)CCC2=O)cc1 [drawing 2481]
51 to 75%	O=C(COCc1ccccc1Cl)Nc1nnc(-c2ccccn2)[nH]1 [drawing 2519]

Same assay, conditions: at 20 μM; read-out: KRas G12D Q61H % Inh.

inhibition at 20 µM	SMILES
25 to 50%	Oc1nc(-c2ccccn2)nc2c(-c3cnc4ccccc4c3)csc12 [drawing 3780]
